This test concerns the target T1, PD-1/PD-L1 (Homo sapiens, UniProt Q9NZQ7).
T1 construct: purchased CisBio
The test can be described thus: PD1-PDL1 HTRF assay. Particulars: PD-1/PD-L1 homogenous time-resolved fluorescence (HTRF) binding assay; Tag1-PDL1 5 nM, Tag2-PD1 50 nM. The method in brief:
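Compound (8 concentrations) was preincubated 15 min at room temperature with Tag1-PD-L1 and Tag2-PD-1, added as 5 nM and 50 nM solutions. Eu-labelled anti-Tag1 and XL665-labelled anti-Tag2 were then added for 1 h, and the 665/620 nm ratio (×10^4; excitation 320 nm) was fitted to the Hill equation for IC50.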

For orientation: IC50 means the midpoint of a concentration-inhibition curve.

T1 sequence (Q9NZQ7 19-238 limits assumed): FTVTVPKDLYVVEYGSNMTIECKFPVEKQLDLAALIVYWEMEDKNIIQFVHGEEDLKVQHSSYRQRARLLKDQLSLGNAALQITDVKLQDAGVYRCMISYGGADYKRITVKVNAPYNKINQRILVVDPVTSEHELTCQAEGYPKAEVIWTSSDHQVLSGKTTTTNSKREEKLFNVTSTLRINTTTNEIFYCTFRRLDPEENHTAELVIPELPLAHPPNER

`Cc1c(-c2ccc(CNCCO)cc2)cccc1-c1cccc(-c2ccn3nc(CNC[C@@H]4CCC(=O)N4)nc3c2)c1C` [Example 102, (S)-5-((((7-(4″-(((2-hydroxyethyl)amino)methyl)-2,2′-dimethyl-[1,1′:3′,1″-terphenyl]-3-yl)-[1,2,4]triazolo[1,5-a]pyridin-2-yl)methyl)amino)methyl) pyrrolidin-2-one] came in with an IC50 of 10 to 100 nM.

Regarding `Cc1c(NC(=O)c2ccc(CNCCO)cc2)cccc1-c1cccc(-c2ccn3nc(CNC[C@@H]4CCC(=O)N4)nc3c2)c1C` [Example 103, (S)—N-(2,2′-dimethyl-3′-(2-((((5-oxopyrrolidin-2-yl)methyl)amino)methyl)-[1,2,4]triazolo[1,5-a]pyridin-7-yl)-[1,1′-biphenyl]-3-yl)-4-(((2-hydroxyethyl)amino)methyl)benzamide], the IC50 fell in the range of 100 to 1000 nM.

Compound `OCCNCc1ccc(-c2cccc(-c3cccc(-c4ccn5nc(CNCCO)nc5c4)c3Cl)c2Cl)cc1` [Example 104, 2-(((2′,2″-dichloro-3″-(2-(((2-hydroxyethyl)amino)methyl)-[1,2,4]triazolo[1,5-a]pyridin-7-yl)-[1,1′:3′,1″-terphenyl]-4-yl)methyl)amino)ethan-1-ol] yielded an IC50 of at most 10 nM.

`O=C1CC[C@@H](CNCc2ccc(-c3cccc(-c4cccc(-c5ccn6nc(CNC[C@@H]7CCC(=O)N7)nc6c5)c4Cl)c3Cl)cc2)N1` [Example 105, (S)-5-((((21,2″-dichloro-3″-(2-(((((S)-5-oxopyrrolidin-2-yl)methyl)amino)methyl)-[1,2,4]triazolo[1,5-α]pyridin-7-yl)-[1,1′:3′,1″-terphenyl]-4-yl)methyl)amino)methyl)pyrrolidin-2-one] registered an IC50 of at most 10 nM.

`CC(C)(CO)NCc1ccc(-c2cccc(-c3cccc(-c4ccn5nc(CNC(C)(C)CO)nc5c4)c3Cl)c2Cl)cc1` [Example 106, 2-(((21,2″-dichloro-3″-(2-(((1-hydroxy-2-methylpropan-2-yl)amino)methyl)-[1,2,4]triazolo[1,5-a]pyridin-7-yl)-[1,1′:3′,1″-terphenyl]-4-yl)methyl)amino)-2-methylpropan-1-ol]: the half-inhibitory concentration (IC50) was at most 10 nM.

In the case of `CC(=O)NCCNCc1ccc(-c2cccc(-c3cccc(-c4ccn5nc(CNCCNC(C)=O)nc5c4)c3Cl)c2Cl)cc1` [Example 109, N-(2-(((7-(4″-(((2-acetamidoethyl)amino)methyl)-2,2′-dichloro-[1,1′:3′,1″-terphenyl]-3-yl)-[1,2,4]triazolo[1,5-a]pyridin-2-yl)methyl)amino)ethyl)acetamide], the IC50 was at most 10 nM.

With `OCCCNCc1ccc(-c2cccc(-c3cccc(-c4ccn5nc(CNCCCO)nc5c4)c3Cl)c2Cl)cc1` [Example 111, 3-(((2′,2″-dichloro-3″-(2-(((3-hydroxypropyl)amino)methyl)-[1,2,4]triazolo[1,5-a]pyridin-7-yl)-[1,1′:3′,1″-terphenyl]-4-yl)methyl)amino)propan-1-ol], the IC50 is at most 10 nM.

On to `CC(C)(CO)NCc1ccc(-c2cccc(-c3cccc(-c4ccn5nc(CNCCO)nc5c4)c3Cl)c2Cl)cc1` [Example 112, 2-(((2′,2″-dichloro-3″-(2-(((2-hydroxyethyl)amino)methyl)-[1,2,4]triazolo[1,5-a]pyridin-7-yl)-[1,1′:3′,1″-terphenyl]-4-yl)methyl)amino)-2-methylpropan-1-ol], for which the IC50 is 10 to 100 nM.

In the case of `OCCNCc1nc2cc(-c3cccc(-c4cccc(-c5ccc(CN6CCC[C@H]6CO)cc5)c4Cl)c3Cl)ccn2n1` [Example 113, (S)-2-(((7-(2,2′-dichloro-4″-((2-(hydroxymethyl)pyrrolidin-1-yl)methyl)-[1,11:31,1″-terphenyl]-3-yl)-[1,2,4]triazolo[1,5-a]pyridin-2-yl)methyl)amino)ethan-1-ol], the IC50 is at most 10 nM.

Regarding `OCCNCc1nc2cc(-c3cccc(-c4cccc(-c5ccc(CN6CCC[C@@H]6CO)cc5)c4Cl)c3Cl)ccn2n1` [Example 114, (R)-2-(((7-(2,2′-dichloro-4″-((2-(hydroxymethyl)pyrrolidin-1-yl)methyl)-[1,11:3′,1″-terphenyl]-3-yl)-[1,2,4]triazolo [1,5-a]pyridin-2-yl)methyl)amino)ethan-1-ol], the IC50 is at most 10 nM.

Turning to `OCCCNCc1ccc(-c2cccc(-c3cccc(-c4ccn5nc(CNCCO)nc5c4)c3Cl)c2Cl)cc1` [Example 115, 3-(((21,2″-dichloro-3″-(2-(((2-hydroxyethyl)amino)methyl)-[1,2,4]triazolo[1,5-a]pyridin-7-yl)-[1,11:31,1″-terphenyl]-4-yl)methyl)amino)propan-1-ol], the IC50 was at most 10 nM.

Consider `CC(C)(CO)NCc1nc2cc(-c3cccc(-c4cccc(-c5ccc(CNCCO)cc5)c4Cl)c3Cl)ccn2n1` [Example 116, 2-(((7-(2,2′-dichloro-4″-(((2-hydroxyethyl)amino)methyl)-[1,1′:31,1″-terphenyl]-3-yl)-[1,2,4]triazolo[1,5-a]pyridin-2-yl)methyl)amino)-2-methylpropan-1-ol], for which the IC50 was at most 10 nM.
